Patent publication EP1641803B1, “THIENOPYRIMIDINE DERIVATIVES AS POTASSIUM CHANNEL INHIBITORS” (Xention Limited, priority 2003, dated 2004)

Legend:
hKv1.5 = hKv1.5 (Homo sapiens, UniProt P22460); test: Kv1.5 Autopatch Electrophysiology (whole cell patch-clamp); type: cell-based; conditions: compound at 1µM, room temperature (22-24°C), held at -80mV, step to 0mV for 1000ms, total charge measured
Description: The external bathing solution contained (in mM): 150 NaCl, 10 KCl, […], 3 MgCl2, 1 CaCl2, 10 HEPES, pH 7.4. Patch pipettes were filled with an electrode solution of composition (in mM): 160 KCl, 0.5 MgCl2, 10 HEPES, 1 EGTA, pH 7.4 with KOH.
Compounds were dissolved in DMSO (100 %) and made up in the external bather at a concentration of 1µM. All experiments were conducted at room temperature (22-24°C).
A cell suspension (10 ml), with a density of 100,000 cells/ml, was aliquoted into a 15ml centrifuge tube and transferred to an incubator (37°C, 5% CO2) for approximately one hour before use. Following 60 min incubation, a tube was taken and centrifuged at 1000 rpm for 4 mins at room temperature. 9.5 ml supernatant was thence discarded, leaving a cell pellet at the bottom of the tube. The pellet was then resuspended using 100 µl of cold (4 °C), filtered (0.22 µm), 0.2 % BSA/bather solution (0.02g BSA/10ml bather). The bottom of the tube was manually agitated gently until the solution became cloudy with cells. The 100 µl cell resuspension solution was then stored on the bench at 4 °C (using a Peltier-based temperature control device) until used.
A length of capillary glass (1B150F-4, WPI) was dipped into the cell suspension solution, such that - 3 cm column of fluid was taken up by capillary action. A Ag/AgCl wire was dropped into the non-dipped end of the capillary also. The outside of the solution-filled end of the capillary was then dried and the capillary was loaded into the AutoPatch™. Borosilicate glass patch pipettes (from 1.5mm OD, thin-walled filamented, GC150-TF capillary glass, Harvard) were pulled using a DMZ pipette puller (Zeitz Instruments), and were back-filled using the internal pipette solution, being careful that no bubbles remain at the tip or in the body of the pipette. Patch pipettes typically had resistances of 2.3-3.5 MΩ. Once filled, the pipette tip and a proportion of the shaft (- 15 mm) were dipped into Sigmacote (Sigma). The recording pipette was then loaded into the AutoPatch™.
Automated patch-clamping was initiated by the operator, but thereafter AutoPatch.exe continued the experiment providing that pre-set conditions and criteria were satisfied.
Whole cell patch-clamp recordings were made using the AutoPatch™ rig, which incorporated an EPC9 amplifier (HEKA, Germany) under control of Pulse software (v8.54, HEKA, Germany), a motion controller with 2 translators (Newport, UK), valve controller (VF1) and a c-level suction device all at room temperature (22-24°C). This equipment was completely under the control of AutoPatch.exe and operator intervention was only made when there was a requirement to refill the drug reservoirs or to prevent the loss of a cell due to a technical error. Cells with an Rseries greater than 18 MΩ were discounted from the experiment.
Qualification stages prior to perfusion and drug application ensured that the observed current met the criteria for the experiment. Only those cells with an IK > 500 pA were used for experiments. Cells were continuously perfused with external solution at a flow rate of 1.8-2 ml/minute. […] Online analysis of the hKv1.5 current during the application of compounds was performed by the AutoPatch™ software. Voltage-step protocols and analysis of data was performed as described for conventional electrophysiology.
Electrophysiology voltage-step protocols and analysis of data was performed as follows. Data was sampled at 5kHz, and filtered with a -3 dB bandwidth of 2.5kHz. Cells were held at a voltage of -80mV. Currents were evoked to a voltage step for 1000ms in duration at 0mV every 5s. Currents were analysed using Pulsefit software (v8.54, HEKA, Germany), with the total charge measured during the whole of the voltage step. All other plots were produced using Igor Pro (WaveMetrics).

human Kv1.5 = target: T1, human Kv1.5 (Homo sapiens, UniProt P22460); test: Kv1.5 Rb+ Efflux Assay; type: cell-based; conditions: inhibition of 86Rb+ efflux through Kv1.5; cells stably transfected with human Kv1.5; 10 point concentration response curves n=2; normalised to 2.5mM 4 amino-pyridine block
T1 construct: expressed in transfected cells
Description: The pore of a potassium channel is permeable to other monovalent cations such as Rb^+ and Tl^+. Analysis of cellular efflux of potassium channel permeable ions enables potassium channel activity to be monitored directly. Cells stably transfected with cDNA for human Kv1.5 (in pEF6::VA-His-TOPO) were grown in Dulbecco's Modified Eagle media (DMEM) alpha supplemented with 10% Fetal Calf Serum (FCS), 20 µl/ml penicillin (5000U/ml) streptomycin (5000µg/ml), 10µl/ml [100x] glutamine, and blasticidin (7.5µg/ml). Cells were dispensed into 96 well cellstar TC plates and allowed to grow until a confluent monolayer was visible. On the morning of the assay run, cold media was aspirated using the TECAN plate washer, and a 50µl media spike containing 2µCi/ml (37kBq/ml) ^86Rb^+ added to each well containing cells using the Shallow-Well Matrix Platemate. Plates were placed in a incubator at 37°C for a minimum of 3 hours. Unloaded ^86Rb^+ in the "hot" media was aspirated and each well washed 4x250µl with Earls Balanced Salt Solution (EBSS) which contained 5mM KCl, 140mM NaCl, 2mM CaCl2, 1mM MgSO4, 10mM HEPES, and 5mM glucose, pH 7.4, 290-300 mOsm. These cells were then pre-incubated with 50µl of EBSS +/- test compounds for 10 minutes at room temperature. After the 10 minute incubation, 50µl of modified EBSS which contained 145mM KCl, 2mM CaCl2, 1mM MgSO4, 10mM HEPES, 5mM glucose, pH 7.4, 290-300 mOsm, was added, and the cells were incubated for a further 10 minutes at room temperature. The high KCl EBSS was used to depolarise cells to a membrane potential that would activate Kv1.5 channels. After the final incubation 80µl/100µl of the reaction from each well was transferred to equivalent wells in a Packard "Optiplate" white 96 well plate and counted in a Packard TopCount liquid scintillation counter by Cerenkov emission. Percentage inhibition ^86Rb^+ efflux through Kv1.5 was calculated by normalisation to 2.5mM 4 amino-pyridine control block of Kv1.5. Alternatively cells were loaded with ^85Rb^+ and quantified by atomic absorption spectroscopy. IC50 determinations were derived from 10 point concentration response curves n=2 using the method described above. Data was fitted as variable slope sigmoidal fit using Graphpad Prism (V3.02) software.

T1 sequence (P22460 whole entry): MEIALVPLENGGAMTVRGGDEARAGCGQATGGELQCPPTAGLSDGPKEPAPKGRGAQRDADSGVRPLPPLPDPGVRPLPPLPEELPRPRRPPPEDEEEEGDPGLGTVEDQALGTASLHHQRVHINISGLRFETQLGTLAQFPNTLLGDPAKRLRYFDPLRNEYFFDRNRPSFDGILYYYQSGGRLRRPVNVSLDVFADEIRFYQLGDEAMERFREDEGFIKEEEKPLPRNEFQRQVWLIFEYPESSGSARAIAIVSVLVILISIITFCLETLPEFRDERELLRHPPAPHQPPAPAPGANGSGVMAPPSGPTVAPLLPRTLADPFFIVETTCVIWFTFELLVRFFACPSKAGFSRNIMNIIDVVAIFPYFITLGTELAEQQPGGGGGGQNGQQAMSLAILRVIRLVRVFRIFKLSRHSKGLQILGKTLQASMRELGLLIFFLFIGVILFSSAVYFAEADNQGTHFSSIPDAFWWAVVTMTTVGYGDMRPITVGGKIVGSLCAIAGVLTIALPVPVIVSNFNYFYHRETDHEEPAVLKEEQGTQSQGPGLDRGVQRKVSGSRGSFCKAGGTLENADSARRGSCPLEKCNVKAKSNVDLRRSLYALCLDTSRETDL
Sequence of hKv1.5 (P22460 whole entry): as above

Compound	inhibition at 1 µM (hKv1.5)	IC50 (human Kv1.5)	% Inhibition at 1µM (hKv1.5)
OCCc1nc(NCc2ccco2)c2c(-c3ccccc3)csc2n1 [Example 251, 2-{4-[(Furan-2-ylmethyl)-amino]-5-phenyl-thieno[2,3-d]pyrimidin-2-yl}-ethanol]	98%	0.08 µM	–
CC(C)(C)c1ccc(-c2csc3ncnc(NCc4ccco4)c23)cc1 [Example 145, [5-(4-tert-Butyl-phenyl)-thieno[2,3-d]pyrimidin-4-yl]-furan-2-ylmethyl-amine]	68%	3.05 µM	–
CCc1sc2ncnc(NCc3ccco3)c2c1-c1ccoc1 [Example 141, (6-Ethyl-5-furan-3-yl-thieno[2,3-d]pyrimidin-4-yl)-furan-2-ylmethyl-amine]	81.3%	2.15 µM	–
c1ccc(COc2ncnc3scc(-c4ccccc4)c23)cc1 [Example 119, 4-Benzyloxy-5-phenyl-thieno[2,3-d]pyrimidine]	44.1%	5.79 µM	–
C=CCNc1ncnc2scc(-c3cccs3)c12 [Example 99, Allyl-(5-thiophen-2-yl-thieno[2,3-d]pyrimidin-4-yl)-amine]	17.5%	7.53 µM	–
c1ccc(-c2csc3ncnc(SCc4ccco4)c23)cc1 [Example 117, 4-(Furan-2-ylmethylsulfanyl)-5-phenyl-thieno[2,3-d]pyrimidine]	43.6%	9.37 µM	57.2%
Cc1sc2ncnc(N3CCCCC3)c2c1-c1ccccc1 [Example 159, 6-Methyl-5-phenyl-4-piperidin-1-yl-thieno[2,3-d]pyrimidine]	83%	13.4 µM	–
c1csc(-c2csc3ncnc(NCC4CC4)c23)c1 [Example 95, Cyclopropylmethyl-(5-thiophen-2-yl-thieno[2,3-d]pyrimidin-4-yl)-amine]	32.6%	4.51 µM	–
c1ccc(-c2csc3ncnc(NCC4CCCCC4)c23)cc1 [Example 89, Cyclohexylmethyl-(5-phenyl-thieno[2,3-d]pyrimidin-4-yl)-amine]	–	8.1 µM	42.2%
c1ccc(-c2csc3ncnc(NC4CCCc5ccccc54)c23)cc1 (stereo not shown) [Example 158, (5-Phenyl-thieno[2,3-d]pyrimidin-4-yl)-(1,2,3,4-tetrahydro-naphthalen-1-yl)-amine]	83.4%	17.7 µM	–

Further lines, results first:

inhibition at 1 µM (hKv1.5)	IC50 (human Kv1.5)	% Inhibition at 1µM (hKv1.5)	Compound
77%	0.67 µM	–	Cc1ccc(-c2csc3ncnc(NCc4ccco4)c23)cc1C [Example 133, [5-(3,4-Dimethyl-phenyl)-thieno[2,3-d]pyrimidin-4-yl]-furan-2-ylmethyl-amine]
76%	0.03 µM	–	Fc1cccc(-c2csc3ncnc(NCc4ccccn4)c23)c1 [Example 331, [5-(3-Fluorophenyl)-thieno[2,3-d]pyrimidin-4-yl]-pyridin-2-ylmethyl-amine]
27.6%	1.91 µM	–	c1coc(CNc2ncnc3scc(-c4cccs4)c23)c1 [Example 92, Furan-2-ylmethyl-(5-thiophen-2-yl-thieno[2,3-d]pyrimidin-4-yl)-amine]
63%	1.32 µM	–	Cc1ccccc1-c1csc2ncnc(NCc3ccco3)c12 [Example 143, Furan-2-ylmethyl-(5-o-tolyl-thieno[2,3-d]pyrimidin-4-yl)-amine]
21.9%	0.33 µM	–	c1ccc(-c2csc3ncnc(OCc4ccccn4)c23)cc1 [Example 106, 5-Phenyl-4-(pyridin-2-ylmethoxy)-thieno[2,3-d]pyrimidine]
88%	0.24 µM	–	Cc1sc2ncnc(NCc3ccccn3)c2c1-c1ccccc1 [Example 157, (6-Methyl-5-phenyl-thieno[2,3-d]pyrimidin-4-yl)-pyridin-2-ylmethyl-amine]
82.6%	2.09 µM	–	Cc1ccc(-c2csc3ncnc(NCc4ccccn4)c23)nc1 [Example 121, [5-(5-Methyl-pyridin-2-yl)-thieno[2,3-d]pyrimidin-4-yl]-pyridin-2-ylmethyl-amine]
46.9%	1.68 µM	–	COc1ccc(-c2csc3ncnc(NCc4ccco4)c23)cc1 [Example 139, Furan-2-ylmethyl-[5-(4-methoxy-phenyl)-thieno[2,3-d]pyrimidin-4-yl]-amine]
97%	0.04 µM	–	CNc1nc(NCc2ccccn2)c2c(-c3ccccc3)csc2n1 [Example 196, N^2-methyl-5-phenyl-N^4-(pyridin-2-ylmethyl)thieno[2,3-d]pyrimidine-2,4-diamine]
49.7%	1.28 µM	–	Cc1ccccc1-c1csc2ncnc(NCc3ccccn3)c12 [Example 142, Pyridin-2-ylmethyl-(5-o-tolyl-thieno[2,3-d]pyrimidin-4-yl)-amine]
24.2%	4.21 µM	–	c1ccc(-c2csc3ncnc(NCc4cccs4)c23)cc1 [Example 85, (5-Phenyl-thieno[2,3-d]pyrimidin-4-yl)-thiophen-2-ylmethyl-amine]
98.7%	0.39 µM	–	CCc1nc(NCc2ccccn2)c2c(-c3ccccc3)csc2n1 [Example 152, (2-Ethyl-5-phenyl-thieno[2,3-d]pyrimidin-4-yl)-pyridin-2-ylmethyl-amine]
95%	0.54 µM	–	CCOC(=O)Cc1nc(NCc2ccccn2)c2c(-c3ccccc3)csc2n1 [Example 237, {5-Phenyl-4-[(pyridin-2-ylmethyl)amino]thieno[2,3-d]pyrimidin-2-yl} acetic acid ethyl ester]
89%	5.37 µM	–	CN(C)CCOc1nc(NCc2ccccn2)c2c(-c3ccccc3)csc2n1 [Example 211, [2-(2-Dimethylamino-ethoxy)-5-phenyl-thieno[2,3-d]pyrimidin-4-yl]-pyridin-2-ylmethyl-amine]
